Data taken from patent US8258173B2, “Melatonin derivatives and their use as antioxidants” (University of Sunderland, priority 2006, dated 2012).
pIC50: −log10 of the molar value. Read-outs that look alike come from different tables or passages of the source.

Tests used:
[1] = system: lipid peroxidation in bovine brain extract liposomes (hydroxyl radicals); assay: Antioxidant test, TBA assay (lipid peroxidation); format: biochemical; details: for pIC50: brain extract liposomes, FeCl3/ascorbic acid, 37° C. 30 min, absorbance 532 nm; for antioxidant activity (in words): scavenging hydroxyl radicals, protection against lipid peroxidation
Description: Ascorbic acid and propylgallate were purchased from Aldrich. N-Butanol and ethanol were purchased from BDH. Butylated hydroxytoluene (BHT), bovine brain extract, FeCl3, thiobarbituric acid (TBA) and PBS (phosphate buffered saline) tablets were purchased from Sigma. For spectroscopic measurements, a UNICAM UVNIS Spectrometer (UV2) was used. A well-controlled water bath was utilized for incubating the test system at the required temperatures. Plastic falcon tubes were used to accommodate the assay. Accurate pipettes were used to dispense the reagents.
The following liposomes and reagents were prepared in order to carry out the experiments. • 1. Brain extract (50 mg) was weighed into a clean universal container. About 7 glass balls and 10 cm^3 of PBS were added. The mixture was sonicated in an ice-water bath until the lipid was suspended and the suspension was homogeneous and milky in appearance. The suspension was kept cool during the sonication, although care was taken not to overfill the bath with ice as the sonication becomes relatively ineffective. • 2. Ascorbic acid (0.0176 g) was dissolved in deionised water and diluted in 100 cm^3 of volumetric flask. • 3. Ferric chloride hexahydrate (0.0270 g) was dissolved in deionized water and diluted in 100 cm^3 of volumetric flask. • 4. Sodium hydroxide (1 g) was dissolved in 500 cm^3 of deionized water. • 5. Phosphate buffered saline was prepared (PBS, pH=7.4). • 6. HCl (338 cm^3, 37%) was diluted with 162 cm^3 deionized water to give 500 cm^3 of 25% HCl. • 7. BHT (5 g) was dissolved in 250 cm^3 ethanol. • 8. TBA (5 g) was added to 500 cm^3, 50 mM NaOH, and the solution was heated with stirring to dissolve all the TBA. • 9. PG (0.1061 g) was dissolved in 500 cm^3 deionized water. • 10. A stock solution of test compound at 10 mg/cm^3 was prepared, the concentration depended on the estimated activity of the substance, and serial dilutions were made to obtain 5.0, 2.5, 1.25, 0.625, 0.3125 and 0.15625 mg/cm^3. The stock solution and these six dilutions were screened in the lipid peroxidation—TEA test, in attempt to obtain a dose response curve for antioxidant efficacy against concentration for the substance.
Sixty-eight centrifuge tubes were numbered. • 1. Test substance (0.1 cm^3) was added to tubes; 10 mg/cm^3 to No. 13-20 of tubes, 5 mg/cm^3 to No. 21-28, 2.5 mg/cm^3 to No. 29-36, 1.25 mg/cm^3 to No. 37-44, 0.625 mg/cm^3 to No. 45-52, 0.3125 mg/cm^3 to No. 53-60, 0.15625 mg/cm^3 to No. 61-68. • 2. PG (0.1 cm^3) was added to 9-12. • 3. Ethanol (0.1 cm^3) was added to No. 5-8. • 4. Deionized water (0.3 cm^3) was added to No. 1-4, deionized water (0.4 cm^3) was added to No. 17-20, 25-28, 33-36, 41-44, 49-52, 57-60, and 65-68. • 5. Liposome (0.2 cm^3) was added to No. 1-4, 5-8, 9-12, 13-16, 21-24, 29-32, 37-40, 45-48, 53-56 and 61-64. • 6. PBS (0.5 cm^3) was added to all tubes. • 7. Ferric chloride (0.1 cm^3, 1 mM) was added to No. 5-8, 9-12, 13-16, 21-24, 29-32, 37-40, 45-48, 53-56, and 61-64. • 8. Ascorbic acid (0.1 cm^3, 1 mM) was added to No. 5-8, 9-12, 13-16, 21-24, 29-32, 37-40, 45-48, 53-56 and 61-64. • 9. The tubes were incubated at 37° C. for 30 min. • 10. BHT (0.1 cm^3, 2%), TBA (0.5 cm^3, 1%) and HCl (0.5 cm^3, 25%) were added to all tubes. • 11. The tubes were heated at 85-90° C. for […]. • 12. The tubes were removed from heater and cooled. • 13. N-Butanol (2.5 cm^3) was added to all tubes. The tubes were then shaken to mix and spun at 3500 rpm at room temperature for 10 min. • 14. N-Butanol (2.5 cm^3) was removed and placed in cuvettes. • 15. Absorbance at 532 nm on a spectrophotometer was recorded, using n-butanol as blank. • 16. The mean and standard deviation were calculated. The % inhibition was calculated using equation (1).
[formula] • All data are expressed and mean±SEM (n=4). % inhibition was used to construct the graph and calculate IC50.

[2] = system: HPV-16 immortalized human keratinocyte cell line; assay: Cell line test (MTT), keratinocyte proliferation; format: cell-based; details: for pIC50: read-out: MTT assay IG50; for anti-proliferative activity (in words): HPV-16 immortalized keratinocyte proliferation
Text: 3-[4′,5′-Dimethylthiazol-2′-yl]-2,5-diphenyltetrazolium bromide (MTT), dimethyl sulphoxide (DMSO), isopropranol, foetal calf serum, and trypan blue were purchased from Sigma-Aldrich. Trypsin 250 was purchased from DIFCO. Ethylenediaminetetraacetic acid (EDTA), glucose, sodium phenol red, sodium chloride, potassium chloride, sodium hydrogen carbonate, potassium dihydrogen phosphate, and disodium hydrogen phosphate were purchased from BDH. Keratinocyte-SFM was purchased from GIBCO. For spectroscopic measurements, MRX Microplate Reader was used, which was controlled by Revelation Version 3.04.
The following solutions were prepared for use in the cell line test (MTT). • 1. Sodium chloride (8 g), potassium chloride (0.2 g), disodium hydrogen phosphate (1.15 g) and potassium dihydrogen phosphate (0.2 g) were dissolved in deionized water (1 L). This PBS solution was warmed to 37° C. at the time of use. • 2. Trypsin 250 (2.5 g), EDTA (0.2 g), glucose (1.0 g), potassium chloride (0.4 g), sodium chloride (8.0 g), sodium phenol red (0.002 g), and sodium hydrogen carbonate (0.58 g) were dissolved in deionized water (1 L). This solution was warmed to 37° C. at the time of use. • 3. Trypsin inhibitor solution was created by using feotal calf (1 ml) and was diluted in 100 ml of PBS. • 4. MTT powder (0.125 g) was dissolved in PBS buffer (25 ml) to give 5 mg/ml of MTT stock solution, which was stored at −20° C. and wrapped in foil to protect from light to create MTT stock solution. • 5. MTT stock solution was defrosted and diluted 1 in 10 in PBS buffer to give 0.5 mg/ml of working solution, which was prepared at the time of use to create an MTT working solution. • 5. Trypan blue solution was created by dissolving Trypan blue (0.04 g) in deionized water (10 ml).
The cell culture consisted of an HPV-16 immortalized human keratinocyte cell line from American Type Culture Collection (ATCC).
Cells were cultured in Serum-Free Keratinocyte Medium (Keratinocyte-SFM) supplemented with recombinant epidermal growth factor (rEGF) and bovine pituitary extract (BPE) in a T-75 flask under conditions of 5% C02 at 37° C. Fluid in the flask was changed with fresh complete medium every 3 days.
When cells grew to 60-80% confluence as determined under a microscope, the flask was washed with PBS. Small amount of trypsin-EDTA solution (1-2 ml) was added to the flask and incubated for 5 minutes at 37° C. When approximately 90% of the cells were dislodged, trypsin inhibitor solution (10 ml) was added to stop trypsin reaction. The cells were spun at 500 rpm for 10 minutes at room temperature. The cell pellet was gently resuspended in 10 ml of media. The basal cells were counted with a haemocytometer by adding trypan blue solution to determine viable cells. The cells were adjusted the density to 1×10^5 cells/mL in media.
A stock solution of each compound was prepared by dissolving compound (20 mg) in DMSO (1 ml), to give 20 mg/mL of stock solution.
A working solution was prepared by diluting a stock solution (20 μl) into media (1.98 ml) to give 200 μg/mL of working solution.
The following steps were performed to carry out the MMT experiment. 100 μl of resuspended cell suspension was added to test wells in 96-well plate, omitting column 11. Media was aspirated from each well after plate was incubated for 24 hours at 37° C., 5% CO2, then wells were washed with PBS. 100 μl of media containing 1% DMSO was added to each test well, omitting column 2. 200 μl of working solution of compound was added to each the wells, B2 to G2. 100 μl of solution was transferred to perform serial dilutions across the plate from column 2 up to column 9, and 100 μl of solution was discard from column 9. The plate was incubated for 3 days at 37° C., 5% C02. Media was removed, and wells were washed with PBS. Then 200 μl of MTT working solution was added to each well. After the plate was incubated for 2 hours at 37° C., MTT solution was removed and wells were washed with PBS. […]

[3] = Homo sapiens, Keratinocyte, 72 h, HPV-16 immortalized human keratinocytes, 3 days incubation
[4] = Homo sapiens, Keratinocyte, 72 h
[5] = HPV-16 immortalized human keratinocytes, 3 days incubation

Row | Compound | pIC50 [1] | pIC50 [2, 3] | antioxidant activity (in words) [1] | anti-proliferative activity (in words) [2] | pIC50 [2, 4] | pIC50 [2, 5]
1 | COc1cc(OC)c2[nH]ccc2c1C1C=NN(C(C)=O)C1 (stereo not drawn) [1-Acetyl-4,5-dihydro-4-(5′,7′-dimethoxyindol-4′-yl)-1H-pyrazole] | 2.75 | 3.45 | – | – | – | –
2 | COc1ccc2[nH]cc(C3C=NN(C(C)=O)C3)c2c1 (stereo not drawn) [1-Acetyl-4,5-dihydro-4-(5′-methoxyindol-3′-yl)-1H-pyrazole] | 3.68 | 3.82 | almost the same antioxidant activity as melatonin | much more activity than melatonin | – | –
3 | COc1ccc2[nH]cc(C=C[N+](=O)[O-])c2c1OC [4,5-Dimethoxy-3-(2-nitroethenyl)-indole] | 3.36 | 4.66 | – | very low IG50 values comparative to dithranol | – | –
4 | COc1ccc2[nH]cc(C(C[N+](=O)[O-])C[N+](=O)[O-])c2c1OC [4,5-Dimethoxy-3-bis(nitromethyl)methylindole] | 2.72 | – | – | – | 3.90 | –
5 | COc1ccc2[nH]cc(CCN)c2c1OC [4,5-Dimethoxytryptamine] | 4.01 | > 4.00 | – | – | – | 4.08
6 | COc1cc(OC)c2[nH]ccc2c1CCN [4-(2-Aminoethyl)-5,7-dimethoxyindole] | 4.29 | > 4.00 | – | – | – | 4.27
7 | COc1ccc2[nH]cc(CCNC(C)=O)c2c1OC [4-Methoxymelatonin] | 3.55 | 3.93 | almost the same antioxidant activity as melatonin | much more activity than melatonin | – | –
8 | COc1cc(OC)c2[nH]cc(C=C[N+](=O)[O-])c2c1 [5,7-Dimethoxy-3-(2-nitroethenyl)-indole] | 3.09 | 4.87 | – | very low IG50 values comparative to dithranol | – | –
9 | COc1cc(OC)c2[nH]cc(C(C[N+](=O)[O-])C[N+](=O)[O-])c2c1 [5,7-Dimethoxy-3-bis(nitromethyl)methylindole] | 2.78 | – | – | anti-proliferative effect | 4.69 | –
10 | COc1cc(OC)c2[nH]ccc2c1C=C[N+](=O)[O-] [5,7-Dimethoxy-4-(2-nitroethenyl)-indole] | 3.22 | 5.18 | – | very low IG50 values comparative to dithranol | – | –
11 | COc1cc(OC)c2[nH]ccc2c1C(C[N+](=O)[O-])C[N+](=O)[O-] [5,7-Dimethoxy-4-{2′-nitro-1′-(nitromethyl)ethyl}indole] | 2.40 | – | – | – | 3.84 | –
12 | COc1ccc2[nH]cc(C=C[N+](=O)[O-])c2c1 [5-Methoxy-3-(2-nitroethenyl)-indole] | 2.60 | 4.81 | – | anti-proliferative effect | – | –
13 | COc1ccc(N)c(C(=O)CCNC(C)=O)c1 [AMK, reference compound] | 3.55 | – | – | – | – | 3.39
14 | COc1ccc2[nH]cc(CCNC(C)=O)c2c1 [Melatonin] | – | < 3.06 | – | inactive | – | –
15 | CC(=O)NCCc1c[nH]c2ccc(O)cc12 [N-Acetylseratonin, N-acetylserotonin, reference compound] | 3.12 | – | – | inactive | – | < 3.04
16 | NCCc1c[nH]c2ccc(O)cc12 [serotonin, reference compound] | – | – | – | inactive | – | –
17 | N-ethylformylmelatonin | – | – | almost the same antioxidant activity as melatonin | much more activity than melatonin | – | –
